Numbers after ± are expanded uncertainties.
Key:
[1] = Capillary rise
[2] = wn = mass fraction of the nth substance listed; conditions: Capillary rise

CC(F)F [1,1-difluoroethane]
[1]
Conditions | surface tension liquid-gas [mN/m]
298.18 K | 9.747 ± 0.4
303.23 K | 9.062 ± 0.4
308.19 K | 8.505 ± 0.4
313.13 K | 7.731 ± 0.4

FC(F)C(F)(F)F [pentafluoroethane] + CC(F)F
[2]
Conditions | surface tension liquid-gas [mN/m]
243.08 K, w1 = 0.2019 | 16.5 ± 0.4
243.16 K, w1 = 0.097 | 17 ± 0.4
243.22 K, w1 = 0.2996 | 15.6 ± 0.4
248.09 K, w1 = 0.2019 | 15.8 ± 0.4
248.12 K, w1 = 0.2996 | 15 ± 0.4
248.13 K, w1 = 0.097 | 16.2 ± 0.4
253.12 K, w1 = 0.2019 | 15.1 ± 0.4
253.13 K, w1 = 0.2996 | 14.3 ± 0.4
253.55 K, w1 = 0.097 | 15.3 ± 0.4
258.11 K, w1 = 0.097 | 14.6 ± 0.4
258.16 K, w1 = 0.2019 | 14.4 ± 0.4
258.16 K, w1 = 0.2996 | 13.7 ± 0.4
263.06 K, w1 = 0.097 | 13.9 ± 0.4
263.17 K, w1 = 0.2996 | 13 ± 0.4
263.19 K, w1 = 0.2019 | 13.5 ± 0.4
268.12 K, w1 = 0.097 | 13.3 ± 0.4
268.17 K, w1 = 0.2019 | 12.9 ± 0.4
268.18 K, w1 = 0.2996 | 12.2 ± 0.4
273.18 K, w1 = 0.097 | 12.5 ± 0.4
273.18 K, w1 = 0.2996 | 11.4 ± 0.4
273.19 K, w1 = 0.2019 | 12.2 ± 0.4
278.17 K, w1 = 0.2996 | 10.6 ± 0.4
278.18 K, w1 = 0.097 | 11.8 ± 0.4
278.42 K, w1 = 0.2019 | 11.4 ± 0.4
283.13 K, w1 = 0.097 | 11.2 ± 0.4
283.15 K, w1 = 0.2019 | 10.6 ± 0.4
283.17 K, w1 = 0.2996 | 10.1 ± 0.4
288.16 K, w1 = 0.2019 | 9.9 ± 0.4
288.17 K, w1 = 0.097 | 10.6 ± 0.4
288.18 K, w1 = 0.2996 | 9.5 ± 0.4
293.14 K, w1 = 0.2019 | 9.4 ± 0.4
293.17 K, w1 = 0.097 | 9.8 ± 0.4
293.18 K, w1 = 0.2996 | 8.7 ± 0.4
298.08 K, w1 = 0.2019 | 8.8 ± 0.4
298.1 K, w1 = 0.097 | 9.2 ± 0.4
298.11 K, w1 = 0.2996 | 8 ± 0.4
303.13 K, w1 = 0.2019 | 8 ± 0.4
303.17 K, w1 = 0.097 | 8.5 ± 0.4
303.18 K, w1 = 0.2996 | 7.4 ± 0.4
308.1 K, w1 = 0.097 | 7.9 ± 0.4
308.1 K, w1 = 0.2019 | 7.4 ± 0.4
308.12 K, w1 = 0.2996 | 6.7 ± 0.4
313.11 K, w1 = 0.2019 | 6.7 ± 0.4
313.16 K, w1 = 0.097 | 7.2 ± 0.4
313.19 K, w1 = 0.2996 | 6.1 ± 0.4
318.11 K, w1 = 0.2019 | 6.1 ± 0.4
318.12 K, w1 = 0.097 | 6.5 ± 0.4
318.16 K, w1 = 0.2996 | 5.5 ± 0.4
323.14 K, w1 = 0.2019 | 5.4 ± 0.4
323.16 K, w1 = 0.097 | 5.8 ± 0.4
323.17 K, w1 = 0.2996 | 5 ± 0.4
328.1 K, w1 = 0.2019 | 4.8 ± 0.4
328.11 K, w1 = 0.097 | 5.2 ± 0.4
328.16 K, w1 = 0.2996 | 4.3 ± 0.4

CC(C)C [2-methylpropane]
[1]
Conditions | surface tension liquid-gas [mN/m]
313.17 K | 8.28 ± 0.45
318.13 K | 7.704 ± 0.45
323.16 K | 7.182 ± 0.44
328.12 K | 6.691 ± 0.44
328.13 K | 6.669 ± 0.43

Reference: the NIST ThermoML archive (doi:10.1016/j.fluid.2009.09.005)
